In patent US12102608B2, “Composition of acylethanolamides from olive oil fatty acids” (EPITECH GROUP S.P.A., priority 2021, dated 2024):

Tests used:
Assay type in all cases: in vivo, rat
[1] = system: paw edema of animals injected with CAR; test: Carrageenan-induced paw edema, plethysmometer; conditions: per os 30 min before CAR in 2% CMC; PEA 2 mg/kg, OEA 6 mg/kg, complex/silica 20 mg/kg; 1 h to 6 h after CAR; FIG. 1
Procedure: The study was conducted on male Sprague-Dawley rats (200-235 g; Harlan, Nossan, Italy) fed ad libitum and housed in cages with a controlled sleep/wake cycle. Before the start of the experimentation, the animals were subjected to an acclimatization period of 1 week considering all the experimental procedures and protocols, compliant with the principles of the care of laboratory animals approved by the Italian Ministry of Health and respecting the guidelines of the European Economic Community. The animals were subjected to a single injection of 100 μl of saline solution containing 1% Carrageenan (CAR) in one of the two hind legs. Paw edema was measured with a plethysmometer (Ugo Basile, Comerio, Varese, Italy) (Salvemini D et al. Nitric oxide: A key mediator in the early and late phase of carrageenan-induced rat paw inflammation. Br. J. Pharmacol. 1996; 118: 829-838) before the CAR injection and after the inoculation thereof every hour for 6 h. The hyperalgesic responses to heat were assessed using the plantar test with a cut-off latency of 20 sec to avoid tissue damage. […] The suspension latency period of the injected paw was determined by an electronic circuit and the results were expressed in seconds. Edema was expressed as increased paw volume (mL) after the CAR injection with respect to the pre-injection value for all the animals. […]

[2] = system: tissue damage of the paw of animals subjected to CAR injection; test: Histology of paw tissue (Hematoxylin/Eosin), tissue damage score; conditions: per os 30 min before CAR; PEA 2 mg/kg, OEA 6 mg/kg, complex/silica 20 mg/kg; tissue taken 6 h after CAR; FIG. 3
Procedure: (§1) The study was conducted on male Sprague-Dawley rats (200-235 g; Harlan, Nossan, Italy) fed ad libitum and housed in cages with a controlled sleep/wake cycle. Before the start of the experimentation, the animals were subjected to an acclimatization period of 1 week considering all the experimental procedures and protocols, compliant with the principles of the care of laboratory animals approved by the Italian Ministry of Health and respecting the guidelines of the European Economic Community. […]

[3] = system: CAR-induced thermal hyperalgesia; test: Plantar test, thermal hyperalgesia after CAR injection; conditions: per os 30 min before CAR in 2% CMC; PEA 2 mg/kg, OEA 6 mg/kg, complex/silica 20 mg/kg; 1 h to 6 h after CAR, vs. vehicle; FIG. 2
Procedure: The study was conducted on male Sprague-Dawley rats (200-235 g; Harlan, Nossan, Italy) fed ad libitum and housed in cages with a controlled sleep/wake cycle. Before the start of the experimentation, the animals were subjected to an acclimatization period of 1 week considering all the experimental procedures and protocols, compliant with the principles of the care of laboratory animals approved by the Italian Ministry of Health and respecting the guidelines of the European Economic Community. The animals were subjected to a single injection of 100 μl of saline solution containing 1% Carrageenan (CAR) in one of the two hind legs. Paw edema was measured with a plethysmometer (Ugo Basile, Comerio, Varese, Italy) (Salvemini D et al. Nitric oxide: A key mediator in the early and late phase of carrageenan-induced rat paw inflammation. Br. J. Pharmacol. 1996; 118: 829-838) before the CAR injection and after the inoculation thereof every hour for 6 h. The hyperalgesic responses to heat were assessed using the plantar test with a cut-off latency of 20 sec to avoid tissue damage. The rats were individually housed in plexiglass compartments to acclimatize them before subjecting them to thermal stimulation. The suspension latency period of the injected paw was determined by an electronic circuit and the results were expressed in seconds. […]

[4] = system: mast cells in the paw tissue; test: Toluidine Blue staining of mast cells in paw tissue; conditions: per os 30 min before CAR; PEA 2 mg/kg, OEA 6 mg/kg, complex/silica 20 mg/kg; 6 h after CAR; PEA and OEA compared with sham; FIG. 4
Procedure: as §1

Structure (SMILES) | edema (increased paw volume) caused by CAR [1] | paw tissue damage (E/E histological score) [2] | CAR-induced thermal hyperalgesia (plantar test latency) [3] | number of mast cells / mast cell infiltrate in paw tissue [4]
CCCCCCCC/C=C\CCCCCCCC(=O)NCCO [OEA, oleoylethanolamide] | No significant reduction in the edema | not capable of protecting the paw tissues | No analgesic effect | significant increase in the number of mast cells
CCCCCCCCCCCCCCCC(=O)NCCO [PEA, palmitoylethanolamide] | No significant reduction in the edema | not capable of protecting the paw tissues | No analgesic effect | significant increase in the number of mast cells
